The term Ki denotes a dissociation constant, usually derived from enzyme kinetics or from competition with a known ligand. Higher therefore signals weaker binding. The IC90 is the point of the concentration-response curve where the effect stands at 90%. A high value points to weaker potency.

Assay [1] deals with T1, Human immunodeficiency virus type 1 protease (Human immunodeficiency virus 1, UniProt Q72874). As to the kind of experiment: Binding affinity towards HIV protease.
Assay [2] has as its target T1, Human immunodeficiency virus type 1 protease. As to the kind of experiment: Binding affinity against HIV-1 protease.
Assay [3] deals with Human immunodeficiency virus type 1 protease (Human immunodeficiency virus 1) (UniProt Q72874).
Description: Inhibitory concentration for antiviral activity against MT-4/HIV-1IIIB cell culture

In assay [1], `CCC(Cc1ccccc1)c1cc(O)c(C(c2cccc(NC(=O)Cc3cccnc3)c2)C2CC2)c(=O)o1` (stereo not given) returned a Ki of 44 nM.

In turn, `COCCOCCCc1cc(O)c(C(c2cccc(NS(=O)(=O)c3cn(C)cn3)c2)C2CC2)c(=O)o1` (stereo not given) displayed a Ki in assay [2] of 1.6 nM.

As for `Cn1cnc(S(=O)(=O)Nc2cccc(C(c3c(O)cc(C(CC4CC4)CC4CC4)oc3=O)C3CC3)c2)c1` (single isomer, unassigned; enantiomer 1), the IC90 in assay [3] was 10400 nM.

Take `CCC(Cc1ccccc1)c1cc(O)c(C(c2cccc(NS(=O)(=O)c3cn(C)cn3)c2)C2CC2)c(=O)o1` (single isomer, unassigned; diastereomer 2) [listing 1 of 2 here]: affinity in assay [2] was put at a Ki of 0.73 nM.

For `COc1ccc2c(O)c(C(c3cccc(NS(=O)(=O)c4cn(C)cn4)c3)C3CC3)c(=O)oc2c1` (stereo not given), the affinity in assay [2] corresponds to a Ki of 0.7 nM.

`CCC(CC1CCOCC1)c1cc(O)c(C(c2cccc(NS(=O)(=O)c3cn(C)cn3)c2)C2CC2)c(=O)o1` (stereo not given) displayed a Ki in assay [2] of 0.48 nM.

In turn, `CCC(Cc1ccccc1)c1cc(O)c(C(c2cccc(NS(=O)(=O)c3cn(C)cn3)c2)C2CC2)c(=O)o1` (single isomer, unassigned; diastereomer 1) [listing 1 of 2 here] gave an IC90 in assay [3] of 4500 nM.

In turn, `CCCS(=O)(=O)Nc1cccc(C(c2c(O)cc(C(CC)Cc3ccccc3)oc2=O)C2CC2)c1` (stereo not given) showed a Ki in assay [2] of 40 nM. Moreover, in assay [3], it took 11100 nM to reach the 90% level (IC90).

Molecule `O=c1cc(C(CC2CC2)CC2CC2)oc(O)c1C(c1cccc(NS(=O)(=O)c2ccccc2)c1)C1CC1` (stereo not given) gave a Ki in assay [2] of 23 nM. This molecule also showed a concentration for an effect of 90% (IC90) in assay [3] of 12100 nM.

In the case of `CCC(Cc1ccccc1)c1cc(O)c(C(c2cccc(NS(=O)(=O)c3cn(C)cn3)c2)C2CC2)c(=O)o1` (single isomer, unassigned; diastereomer 4) [listing 1 of 2 here], in assay [3], it took 6000 nM to reach the 90% level (IC90).

In assay [1], `CCC(c1cccc(NC(=O)CCNC2C=Cc3ccccc32)c1)c1c(O)oc2ccccc2c1=O` (stereo not given) registered a Ki of 110 nM.

In turn, `CCC(Cc1ccccc1)c1cc(O)c(C(c2cccc(NS(=O)(=O)c3cn(C)cn3)c2)C2CC2)c(=O)o1` (single isomer, unassigned; diastereomer 1) [listing 2 of 2 here] yielded a Ki in assay [2] of 0.52 nM.

In the case of `CCC(CC)c1cc(O)c(C(c2cccc(NS(=O)(=O)c3cn(C)cn3)c2)C2CC2)c(=O)o1` (stereo not given), in assay [2], the affinity corresponds to a Ki of 0.54 nM.

As to `CCC(Cc1ccccc1)c1cc(O)c(C(c2cccc(NS(=O)(=O)c3cn(C)cn3)c2)C2CC2)c(=O)o1` (single isomer, unassigned; diastereomer 3) [listing 1 of 2 here], in assay [3], the IC90 is 6800 nM.

The molecule `O=c1cc(C(CC2CC2)CC2CC2)oc(O)c1C(c1cccc(NS(=O)(=O)c2cccc3cccnc23)c1)C1CC1` (stereo not given) yielded a Ki in assay [2] of 5.3 nM. In assay [3], the 90% effect concentration (IC90) was 6500 nM.

In assay [2], `N#Cc1ccc(S(=O)(=O)Nc2cccc(C(c3c(O)oc(C(CC4CC4)CC4CC4)cc3=O)C3CC3)c2)cc1` (stereo not given) came in with a Ki of 5.4 nM. In assay [3], the IC90 worked out at 8900 nM.

In assay [2], `COc1ccc2c(O)c(C(c3cccc(NS(=O)(=O)c4ccc(C#N)cc4)c3)C3CC3)c(=O)oc2c1` (stereo not given) showed a Ki of 5.8 nM.

Molecule `CCC(Cc1ccccc1)c1cc(O)c(C(c2cccc(NS(=O)(=O)c3ccccc3)c2)C2CC2)c(=O)o1` (stereo not given) displayed a Ki in assay [2] of 17 nM. Also, the IC90 in assay [3] worked out at 7600 nM.

In turn, `COc1ccc2c(O)c(C(c3cccc(NS(=O)(=O)c4ccc(F)cc4)c3)C3CC3)c(=O)oc2c1` (stereo not given) came in with a Ki in assay [2] of 7.7 nM.

As for `Cn1cnc(S(=O)(=O)Nc2cccc(C(c3c(O)cc(C(CC4CC4)CC4CC4)oc3=O)C3CC3)c2)c1` (racemic), in assay [3], the 90% effect level (IC90) was put at 4600 nM.

In assay [2], `O=c1cc(C(CC2CC2)CC2CC2)oc(O)c1C(c1cccc(NS(=O)(=O)c2ccc(F)cc2)c1)C1CC1` (stereo not given) showed a Ki of 16 nM. The IC90 in assay [3] stood at 8000 nM.

In turn, `CCC(Cc1ccccc1)c1cc(O)c(C(c2cccc(NS(=O)(=O)c3ccc(OC)cc3)c2)C2CC2)c(=O)o1` (stereo not given) registered a Ki in assay [2] of 22 nM. The IC90 in assay [3] came out at 7600 nM.

Turning to `CCC(Cc1ccccc1)c1cc(O)c(C(c2cccc(NS(=O)(=O)c3cn(C)cn3)c2)C2CC2)c(=O)o1` (single isomer, unassigned; diastereomer 4) [listing 2 of 2 here], the inhibition constant Ki in assay [2] came out at 1.4 nM.

In assay [2], `Cc1cc(O)c(C(c2cccc(NS(=O)(=O)c3cn(C)cn3)c2)C2CC2)c(=O)o1` (stereo not given) showed a Ki of 14 nM.

The molecule `Cn1cnc(S(=O)(=O)Nc2cccc(C(c3c(O)cc(CCc4ccccc4)oc3=O)C3CC3)c2)c1` (stereo not given) returned a Ki in assay [2] of 0.97 nM.

`CCC(Cc1ccccc1)c1cc(O)c(C(c2cccc(NS(=O)(=O)c3cn(C)cn3)c2)C2CC2)c(=O)o1` (mixture of isomers) [listing 1 of 2 here] came in with a Ki in assay [2] of 1.3 nM.

Regarding `COc1c(C(O)c2ccccc2)c(=O)oc2ccccc12` (stereo not given), in assay [1], the Ki was determined as 1 nM.

In assay [2], `CCC(Cc1ccccc1)c1cc(O)c(C(c2cccc(NS(=O)(=O)c3ccc(Cl)cc3)c2)C2CC2)c(=O)o1` (stereo not given) yielded a Ki of 15 nM. For the same molecule, in assay [3], the IC90 came to 6200 nM.

`CCC(Cc1ccccc1)c1cc(O)c(C(c2cccc(NS(=O)(=O)c3ccc(C#N)cc3)c2)C2CC2)c(=O)o1` (stereo not given) showed an inhibition constant (Ki) in assay [2] of 5.7 nM. In addition, in assay [3], the IC90 was 9900 nM.

`Cn1cnc(S(=O)(=O)Nc2cccc(C(c3c(O)cc(C(CC4CC4)CC4CC4)oc3=O)C3CC3)c2)c1` (single isomer, unassigned; enantiomer 2) had a concentration for an effect of 90% (IC90) in assay [3] of 6900 nM.

In assay [2], `CCC(CCOCCOC)c1cc(O)c(C(c2cccc(NS(=O)(=O)c3cn(C)cn3)c2)C2CC2)c(=O)o1` (stereo not given) gave an inhibitory constant (Ki) of 0.88 nM.

In assay [2], `CCC(Cc1ccccc1)c1cc(O)c(C(c2cccc(NS(=O)(=O)c3cccc4cccnc34)c2)C2CC2)c(=O)o1` (stereo not given) showed a Ki of 3.5 nM. This molecule had a concentration for an effect of 90% (IC90) in assay [3] of 6000 nM.

`CCC(Cc1ccccc1)c1cc(O)c(C(c2cccc(NC(=O)C(Cc3c[nH]cn3)NC(=O)OC(C)(C)C)c2)C2CC2)c(=O)o1` (stereo not given) returned a Ki in assay [1] of 4 nM.

`CCC(Cc1ccccc1)c1cc(O)c(C(c2cccc(NS(=O)(=O)c3cn(C)cn3)c2)C2CC2)c(=O)o1` (mixture of isomers) [listing 2 of 2 here] gave an IC90 in assay [3] of 4100 nM.

In the case of `CCC(Cc1ccccc1)c1cc(O)c(C(c2cccc(NS(=O)(=O)c3cn(C)cn3)c2)C2CC2)c(=O)o1` (single isomer, unassigned; diastereomer 3) [listing 2 of 2 here], affinity in assay [2] was put at a Ki of 1.9 nM.

In turn, `COc1ccc2c(O)c(C(c3cccc(NS(=O)(=O)c4cccc5cccnc45)c3)C3CC3)c(=O)oc2c1` (stereo not given) gave a Ki in assay [2] of 4.9 nM.

Regarding `COCCOCCC(CCOCCOC)c1cc(O)c(C(c2cccc(NS(=O)(=O)c3cn(C)cn3)c2)C2CC2)c(=O)o1` (stereo not given), the Ki in assay [2] was 4.2 nM.

In assay [2], `CCC(Cc1ccccc1)c1cc(O)c(C(c2cccc(NS(=O)(=O)c3cccnc3)c2)C2CC2)c(=O)o1` (stereo not given) registered a Ki of 12 nM. Moreover, the 90% effect level in assay [3] (IC90) was put at 28700 nM.

Regarding `CCC(Cc1ccccc1)c1cc(O)c(C(c2cccc(NS(=O)(=O)c3cn(C)cn3)c2)C2CC2)c(=O)o1` (single isomer, unassigned; diastereomer 2) [listing 2 of 2 here], the concentration for an effect of 90% (IC90) in assay [3] turned out to be 5700 nM.

Values taken from ChEMBL document CHEMBL1129342, “Structure-based design of novel HIV protease inhibitors: sulfonamide-containing 4-hydroxycoumarins and 4-hydroxy-2-pyrones as potent non-peptidic inhibitors” (J Med Chem, 1996).
